Experimental data as given in ChEMBL document CHEMBL2203027, “Lanostanoids from fungi: a group of potential anticancer compounds” (J Nat Prod, 2012).
Values after ≈ are worked out from the molar mass of the structure shown.

Tests used:
[1] = biological target: T1, DNA topoisomerase 2-alpha (Homo sapiens, UniProt P11388); assay: Inhibition of topoisomerase 2a in human HuH7 cells; type: cell-based, Huh-7
DNA topoisomerase 1 [2] = biological target: T2, DNA topoisomerase 1 (Homo sapiens, UniProt P11387); assay: Inhibition of topoisomerase 1 in human HuH7 cells; type: cell-based, Huh-7
T2 sequence (P11387 whole entry): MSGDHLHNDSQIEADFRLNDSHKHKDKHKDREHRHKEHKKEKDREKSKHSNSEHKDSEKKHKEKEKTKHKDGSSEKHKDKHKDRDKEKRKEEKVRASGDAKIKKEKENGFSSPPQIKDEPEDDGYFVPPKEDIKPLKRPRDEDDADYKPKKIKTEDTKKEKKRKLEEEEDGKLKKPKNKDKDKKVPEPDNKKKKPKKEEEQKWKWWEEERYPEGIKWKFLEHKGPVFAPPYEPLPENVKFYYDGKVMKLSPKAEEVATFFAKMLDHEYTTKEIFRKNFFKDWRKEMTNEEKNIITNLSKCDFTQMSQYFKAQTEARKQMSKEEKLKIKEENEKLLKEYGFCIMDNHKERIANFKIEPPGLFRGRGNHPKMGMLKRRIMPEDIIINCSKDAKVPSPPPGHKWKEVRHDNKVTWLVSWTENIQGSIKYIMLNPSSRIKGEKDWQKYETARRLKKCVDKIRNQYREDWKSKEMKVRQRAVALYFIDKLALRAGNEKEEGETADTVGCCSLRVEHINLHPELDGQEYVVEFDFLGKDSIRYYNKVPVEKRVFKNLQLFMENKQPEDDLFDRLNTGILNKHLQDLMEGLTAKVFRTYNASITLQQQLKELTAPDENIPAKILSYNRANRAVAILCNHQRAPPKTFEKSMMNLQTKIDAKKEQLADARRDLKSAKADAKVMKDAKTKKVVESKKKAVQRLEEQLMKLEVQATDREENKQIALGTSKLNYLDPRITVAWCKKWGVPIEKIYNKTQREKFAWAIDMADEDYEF

[3] = test system: Lewis lung carcinoma cell line; assay: Antitumor activity against mouse LLC cells allografted in mouse assessed as reduction in tumor size at 2 mg/kg, ip qd for 2 weeks measured on day 14 relative to control; type: functional; settings: route intraperitoneal
K562 = assay: Cytotoxicity against human K562 cells; type: functional, cell-based
[4] = biological target: T1, DNA topoisomerase 2-alpha; assay: Inhibition of topoisomerase 2
[5] = test system: Lewis lung carcinoma cell line; assay: Antitumor activity against mouse LLC cells allografted in mouse assessed as reduction in tumor size at 10 mg/kg, ip qd for 2 weeks measured on day 20 relative to control; type: functional; settings: route intraperitoneal
[6] = Cytotoxicity against mouse Meth-A cells; type: functional, cell-based; settings: for EC50: read-out: ED50 (the source's name)
Huh-7 = assay: Cytotoxicity against human HuH7 cells; type: functional, cell-based
HepG2 = assay: Cytotoxicity against human HepG2 cells; type: functional, cell-based
[7] = test system: Lewis lung carcinoma cell line; assay: Antitumor activity against mouse LLC cells allografted in mouse assessed as reduction in tumor size at 5 mg/kg, ip qd for 2 weeks measured on day 20 relative to control; type: functional; settings: route intraperitoneal
T47D = assay: Cytotoxicity against human T47D cells; type: functional, cell-based
[8] = Cytotoxicity against human Hep3B cells; type: functional, cell-based, Hep 3B2
DNA topoisomerase 1 [9] = biological target: T2, DNA topoisomerase 1; assay: Inhibition of topoisomerase 1
[10] = test system: Lewis lung carcinoma cell line; assay: Antitumor activity against mouse LLC cells allografted in mouse assessed as reduction in tumor size at 10 mg/kg, ip qd for 2 weeks measured on day 14 relative to control; type: functional; settings: route intraperitoneal
[11] = test system: Lewis lung carcinoma cell line; assay: Antitumor activity against mouse LLC cells allografted in mouse assessed as reduction in tumor size at 20 mg/kg, ip qd for 2 weeks measured on day 14 relative to control; type: functional; settings: route intraperitoneal
HeLa = assay: Cytotoxicity against human HeLa cells; type: functional, cell-based; settings: Homo sapiens, HeLa
[12] = test system: Lewis lung carcinoma cell line; assay: Antitumor activity against mouse LLC cells allografted in mouse assessed as reduction in tumor size at 5 mg/kg, ip qd for 2 weeks measured on day 14 relative to control; type: functional; settings: route intraperitoneal
[13] = test system: Lewis lung carcinoma cell line; assay: Antitumor activity against mouse LLC cells allografted in mouse assessed as reduction in tumor size at 2 mg/kg, ip qd for 2 weeks measured on day 20 relative to control; type: functional; settings: route intraperitoneal
[14] = test system: Lewis lung carcinoma cell line; assay: Antitumor activity against mouse LLC cells allografted in mouse assessed as reduction in tumor size at 20 mg/kg, ip qd for 2 weeks measured on day 20 relative to control; type: functional; settings: route intraperitoneal
[15] = Cytotoxicity against mouse LLC cells; type: functional, cell-based; settings: Lewis lung carcinoma; for EC50: read-out: ED50 (the source's name)
CCRF S-180 = assay: Cytotoxicity against mouse S180 cells; type: functional, cell-based
[16] = Cytotoxicity against human 95-D cells; type: functional, cell-based
P388 [17] = assay: Antitumor activity against mouse P388 cells allografted in CDF1 mouse assessed as increase in survival rate at 10 mg/kg; type: functional
P388 [18] = assay: Antiproliferative activity against mouse P388 cells; type: functional, cell-based
L1210 = assay: Cytotoxicity against mouse L1210 cells; type: functional, cell-based
HL-60 = assay: Cytotoxicity against human HL60 cells; type: functional, cell-based
COLO 205 = assay: Cytotoxicity against human COLO205 cells; type: functional, cell-based
P388 [19] = assay: Antitumor activity against mouse P388 cells allografted in CDF1 mouse assessed as increase in survival rate at 3 mg/kg; type: functional
Mus musculus = organism: Mus musculus; assay: Inhibition of TPA-induced tumor progression in mouse skin at 0.2 umol measured at week 20; type: functional
A549 = assay: Cytotoxicity against human A549 cells; type: functional, cell-based

T1 sequence (P11388 whole entry): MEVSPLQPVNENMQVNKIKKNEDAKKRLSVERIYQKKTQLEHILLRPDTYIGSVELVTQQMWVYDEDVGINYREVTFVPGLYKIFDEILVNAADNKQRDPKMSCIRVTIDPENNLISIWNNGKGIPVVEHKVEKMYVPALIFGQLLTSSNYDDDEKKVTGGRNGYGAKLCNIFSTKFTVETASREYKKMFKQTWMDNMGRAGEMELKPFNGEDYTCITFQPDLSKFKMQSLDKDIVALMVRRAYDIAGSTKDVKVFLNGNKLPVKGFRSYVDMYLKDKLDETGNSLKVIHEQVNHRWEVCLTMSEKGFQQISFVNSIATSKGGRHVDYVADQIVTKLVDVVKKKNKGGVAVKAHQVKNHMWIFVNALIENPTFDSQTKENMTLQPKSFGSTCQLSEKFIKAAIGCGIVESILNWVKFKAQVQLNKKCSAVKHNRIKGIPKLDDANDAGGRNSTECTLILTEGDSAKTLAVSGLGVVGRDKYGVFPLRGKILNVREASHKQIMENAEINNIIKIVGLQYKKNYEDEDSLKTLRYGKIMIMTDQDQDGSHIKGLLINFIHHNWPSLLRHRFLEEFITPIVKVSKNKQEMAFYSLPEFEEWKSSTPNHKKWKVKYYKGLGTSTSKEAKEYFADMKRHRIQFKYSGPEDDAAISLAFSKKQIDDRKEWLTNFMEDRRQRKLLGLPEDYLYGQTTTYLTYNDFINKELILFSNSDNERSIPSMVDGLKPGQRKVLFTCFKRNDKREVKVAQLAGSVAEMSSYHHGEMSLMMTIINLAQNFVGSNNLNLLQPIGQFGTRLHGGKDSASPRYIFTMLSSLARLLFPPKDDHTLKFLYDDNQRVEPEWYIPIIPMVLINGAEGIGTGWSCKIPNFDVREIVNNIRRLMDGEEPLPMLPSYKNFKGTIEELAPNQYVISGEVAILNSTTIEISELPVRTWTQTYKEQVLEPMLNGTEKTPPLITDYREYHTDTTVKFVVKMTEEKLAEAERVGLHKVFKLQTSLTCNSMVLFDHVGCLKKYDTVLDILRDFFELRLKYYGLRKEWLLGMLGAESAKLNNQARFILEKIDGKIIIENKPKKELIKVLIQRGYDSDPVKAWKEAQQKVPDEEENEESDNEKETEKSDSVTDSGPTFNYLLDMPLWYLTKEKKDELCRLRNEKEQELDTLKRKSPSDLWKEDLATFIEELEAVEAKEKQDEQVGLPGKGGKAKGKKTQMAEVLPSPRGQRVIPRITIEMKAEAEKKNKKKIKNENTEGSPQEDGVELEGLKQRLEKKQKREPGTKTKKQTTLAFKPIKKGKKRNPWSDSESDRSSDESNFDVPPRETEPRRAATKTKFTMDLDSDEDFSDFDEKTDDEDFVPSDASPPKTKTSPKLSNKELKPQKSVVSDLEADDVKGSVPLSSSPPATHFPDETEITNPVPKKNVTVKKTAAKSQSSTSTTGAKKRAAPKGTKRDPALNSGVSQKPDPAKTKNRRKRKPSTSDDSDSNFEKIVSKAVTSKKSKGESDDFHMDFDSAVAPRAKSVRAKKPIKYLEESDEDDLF

CC(=O)O[C@H]1C[C@H]([C@H](C)CC/C=C(\C)C(=O)O)[C@@]2(C)CC=C3C(=CC[C@H]4C(C)(C)[C@@H](O)CC[C@]34C)[C@]12C [GANODERIC ACID X]
IC50 [1]: 25 µM
IC50 (DNA topoisomerase 1 [2]): 55 µM

C[C@H](CCC=C(CO)CO)[C@H]1CC[C@@]2(C)C3=CC[C@H]4C(C)(C)C(=O)CC[C@]4(C)C3=CC[C@]12C [GANODERIOL F]
T/C [3]: 38%
IC50 (K562): 4 µM
IC50 [4]: 17 µM
T/C [5]: 63%
IC50 [6]: 10.1 mg/L (≈ 22.2 µM)
IC50 (Huh-7): 8.5 µM
IC50 (HepG2): 17 µM
T/C [7]: 79%
IC50 (T47D): 3 mg/L (≈ 6.6 µM)
IC50 [8]: 25.3 µM
IC50 (DNA topoisomerase 1 [9]): 106 µM
T/C [10]: 54%
T/C [11]: 48%
IC50 (HeLa): 5 µM
T/C [12]: 64%
T/C [13]: 45%
T/C [14]: 54%
IC50 [15]: 2 mg/L (≈ 4.4 µM)
IC50 (CCRF S-180): 7.1 mg/L (≈ 15.6 µM)

C[C@H](CC[C@@H](O)C(C)(C)O)[C@H]1CC[C@@]2(C)C3=CC[C@H]4C(C)(C)C(=O)CC[C@]4(C)C3=CC[C@]12C [GANODERMANONDIOL]
EC50 [6]: 3.4 mg/L (≈ 7.44 µM)
IC50 (HeLa): 11 µM
EC50 [15]: 2.3 mg/L (≈ 5.04 µM)

C[C@H](CC[C@H](O)[C@](C)(O)CO)[C@H]1CC[C@@]2(C)C3=CC[C@H]4C(C)(C)C(=O)CC[C@]4(C)C3=CC[C@]12C [GANODERMANONTRIOL]
EC50 [6]: 2.3 mg/L (≈ 4.87 µM)
IC50 (HeLa): 11 µM
EC50 [15]: 2.3 mg/L (≈ 4.87 µM)

CC[C@@]1(O)C(=O)OCc2c1cc1n(c2=O)Cc2cc3cc(O)ccc3nc2-1 [HYDROXYCAMPTOTHECIN]
IC50 [16]: 21.3 µM
IC50 (HeLa): 29.5 µM

CC(C)=CC[C@@H](O)[C@@H](C)[C@H]1CC[C@@]2(C)C3=C(CC[C@]12C)[C@@]1(C)CC[C@H](O)C(C)(C)[C@@H]1CC3 [INOTODIOL]
survival at 10 mg/kg (P388 [17]): 20.8%
IC50 (P388 [18]): 13.9 µM
IC50 (L1210): 110 µM
IC50 (HL-60): 25 µM
IC50 (COLO 205): 171 µM
survival at 3 mg/kg (P388 [19]): 9.7%

CC(=O)[C@H]1CC(=O)[C@@]2(C)C3=C(C(=O)C[C@]12C)[C@@]1(C)CC[C@H](O)C(C)(C)[C@@H]1C[C@@H]3O [LUCIDONE A]
IC50 (HeLa): 101 µM

C[C@H](CC[C@H](O)C(C)(C)O)[C@H]1CC[C@@]2(C)C3=C(CC[C@]12C)[C@@]1(C)CCC(=O)C(C)(C)[C@@H]1CC3=O [LUCIDUMOL A]
EC50 [6]: 2.3 mg/L (≈ 4.87 µM)
IC50 (HeLa): 11 µM
EC50 [15]: 2.3 mg/L (≈ 4.87 µM)

COC(=O)C(C)CC(=O)C[C@@H](C)[C@H]1CC(=O)[C@@]2(C)C3=C(C(=O)[C@@H](OC(C)=O)[C@]12C)[C@@]1(C)CC[C@H](O)C(C)(C)[C@@H]1CC3=O (stereo partly specified) [METHYL GANODERATE H]
IC50 (HeLa): 11 µM

COC(=O)CC[C@@H](C)[C@H]1CC(=O)[C@@]2(C)C3=C(C(=O)[C@@H](O)[C@]12C)[C@@]1(C)CC[C@H](O)C(C)(C)[C@@H]1C[C@@H]3O [METHYL LUCIDENATE C]
IC50 (HeLa): 101 µM

C=C(CC[C@@H](C(=O)O)[C@H]1[C@H](O)C[C@@]2(C)C3=CC[C@H]4C(C)(C)C(=O)CC[C@]4(C)C3=CC[C@]12C)C(C)C [POLYPORENIC ACID B]
inhibition (INH) (Mus musculus): 83%
IC50 (A549): 19.8 µM

C=C(C)[C@@H]1CC=C2C(=CC[C@]3(C)[C@@H]([C@@H](CCC=C(C)C)C(=O)O)[C@H](O)C[C@@]23C)[C@@]1(C)CCC(=O)O [PORICOIC ACID B]
inhibition (INH) (Mus musculus): 68%

C=C(C)[C@@H]1CCC2=C(CC[C@]3(C)[C@@H]([C@@H](CCC=C(C)C)C(=O)O)[C@H](O)C[C@@]23C)[C@@]1(C)CCC(=O)O [PORICOIC ACID G]
GI50 (HL-60): 0.0393 µM

CC(C)=CCC[C@@H](C(=O)O)[C@H]1CC[C@@]2(C)C3=C(CC[C@]12C)[C@@]1(C)CC[C@H](O)C(C)(C)[C@@H]1CC3 [TRAMETENOLIC ACID]
IC50 (L1210): 62.5 µM
